Reference: patent US20260049092A1, “ANTIBACTERIAL COMPOUNDS” (Blacksmith Medicines, Inc., priority 2022, published 2026)
In brackets after ≈: the same amount, converted by molar mass. Where two headings read alike, the source gives them in different places.

Key:
Test in all cases: Bacterial susceptibility testing (MIC, broth microdilution)
Assay type in all cases: cell-based
E. coli ATCC25922 = settings: Escherichia coli
In short: (§1)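 CLSI broth microdilution was run in cation-adjusted Mueller-Hinton broth with an inoculum of 3×10^5–7×10^5 CFU/mL and 2-fold compound dilutions. Plates were incubated in ambient air at 35° C for 18-24 h. MIC was the lowest concentration preventing visible growth (OD600 nm<0.05).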

P. aeruginosa PAO1 = settings: Pseudomonas aeruginosa
In short: as §1

P. aeruginosa ATCC27853 = settings: Pseudomonas aeruginosa
In short: as §1

K. pneumoniae ATCC13883 = settings: Klebsiella pneumoniae
In short: as §1

[1] = ATCC25922, read-out: E. coli ATCC25922 MIC
[2] = PAO1, read-out: P. aeruginosa PAO1 MIC
[3] = ATCC27853, read-out: P. aeruginosa ATCC27853 MIC
[4] = ATCC13883, read-out: K. pneumoniae ATCC13883 MIC
[5] = ATCC25922, broth microdilution, cation adjusted Mueller-Hinton Broth, 35° C., 18-24 h, read-out: E. coli ATCC25922 MIC
[6] = PAO1, broth microdilution, cation adjusted Mueller-Hinton Broth, 35° C., 18-24 h, read-out: P. aeruginosa PAO1 MIC
[7] = ATCC27853, broth microdilution, cation adjusted Mueller-Hinton Broth, 35° C., 18-24 h, read-out: P. aeruginosa ATCC27853 MIC
[8] = ATCC13883, broth microdilution, cation adjusted Mueller-Hinton Broth, 35° C., 18-24 h, read-out: K. pneumoniae ATCC13883 MIC

Row | MIC (E. coli ATCC25922; [5]) [µg/mL] | MIC (P. aeruginosa PAO1; [6]) [µg/mL] | MIC (P. aeruginosa ATCC27853; [7]) [µg/mL] | MIC (K. pneumoniae ATCC13883; [8]) [µg/mL] | Structure (SMILES) | MIC (E. coli ATCC25922; [1]) [µg/mL] | MIC (P. aeruginosa PAO1; [2]) [µg/mL] | MIC (P. aeruginosa ATCC27853; [3]) [µg/mL] | MIC (K. pneumoniae ATCC13883; [4]) [µg/mL]
1 | – | – | – | – | C[C@H](O)c1nccn1[C@@H](C#Cc1ccc(-c2ccc(OC3CN(C(=O)N(C)C)C3)cc2)cc1)CO [Compound 95, 3-((4′-((S)-4-hydroxy-3-(2-((S)-1-hydroxyethyl)-1H-imidazol-1-yl)but-1-yn-1-yl)-[1,1′-biphenyl]-4-yl)oxy)-N,N-dimethylazetidine-1-carboxamide] | 0.5 (≈ 1.05 µM) | 2 (≈ 4.21 µM) | 4 (≈ 8.43 µM) | 2 (≈ 4.21 µM)
2 | – | – | – | – | C[C@H](O)c1nccn1[C@@H](C#Cc1ccc(-c2ccc(OC3CN(C(=O)N4CCOCC4)C3)cc2)cc1)CO [Compound 96, (3-((4′-((S)-4-hydroxy-3-(2-((S)-1-hydroxyethyl)-1H-imidazol-1-yl)but-1-yn-1-yl)-[1,1′-biphenyl]-4-yl)oxy)azetidin-1-yl)(morpholino)methanone] | 2 (≈ 3.87 µM) | 8 (≈ 15.5 µM) | 8 (≈ 15.5 µM) | 8 (≈ 15.5 µM)
3 | – | – | – | – | C[C@H](O)c1nccn1[C@@H](C#Cc1ccc(-c2ccc(OC3CN(c4nccn4C)C3)cc2)cc1)CO [Compound 98, (S)-2-(2-((S)-1-hydroxyethyl)-1H-imidazol-1-yl)-4-(4′-((1-(1-methyl-1H-imidazol-2-yl)azetidin-3-yl)oxy)-[1,1′-biphenyl]-4-yl)but-3-yn-1-ol] | 0.5 (≈ 1.03 µM) | 4 (≈ 8.27 µM) | 8 (≈ 16.5 µM) | 2 (≈ 4.14 µM)
4 | 0.38 (≈ 0.981 µM) | > 32 | > 32 | > 32 | C[C@H](O)c1nccn1[C@@H](C#Cc1ccc(-c2ccc(N3CCC3)cc2)cc1)CO [Compound 108, (S)-4-(4′-(azetidin-1-yl)-[1,1′-biphenyl]-4-yl)-2-(2-((S)-1-hydroxyethyl)-1H-imidazol-1-yl)but-3-yn-1-ol] | – | – | – | –
5 | 0.38 (≈ 0.91 µM) | > 32 | > 32 | 1.2 (≈ 2.87 µM) | COC1CN(c2ccc(-c3ccc(C#C[C@@H](CO)n4ccnc4[C@H](C)O)cc3)cc2)C1 [Compound 110, (S)-2-(2-((S)-1-hydroxyethyl)-1H-imidazol-1-yl)-4-(4′-(3-methoxyazetidin-1-yl)-[1,1′-biphenyl]-4-yl)but-3-yn-1-ol] | – | – | – | –
6 | 0.25 (≈ 0.6 µM) | 1.5 (≈ 3.6 µM) | 2 (≈ 4.8 µM) | 0.5 (≈ 1.2 µM) | C[C@H](O)c1nccn1[C@@H](C#Cc1ccc(-c2ccc(C3CC(C)(O)C3)cc2)cc1)CO (stereo partly drawn) [Compound 111, 3-(4′-((S)-4-hydroxy-3-(2-((S)-1-hydroxyethyl)-1H-imidazol-1-yl)but-1-yn-1-yl)-[1,1′-biphenyl]-4-yl)-1-methylcyclobutan-1-ol] | – | – | – | –
7 | > 32 | > 32 | > 32 | > 32 | C[C@H](O)c1nccn1[C@@H](C#Cc1ccc(-c2ccn(C)c(=O)c2)cc1)CO [Compound 112, 4-(4-((S)-4-hydroxy-3-(2-((S)-1-hydroxyethyl)-1H-imidazol-1-yl)but-1-yn-1-yl)phenyl)-1-methylpyridin-2(1H)-one] | – | – | – | –
8 | 0.25 (≈ 0.644 µM) | 2 (≈ 5.15 µM) | 4 (≈ 10.3 µM) | 1 (≈ 2.57 µM) | C[C@H](O)c1nccn1[C@@H](C#Cc1ccc(-c2ccc(C3COC3)cc2)cc1)CO [Compound 128, (S)-2-(2-((S)-1-hydroxyethyl)-1H-imidazol-1-yl)-4-(4′-(oxetan-3-yl)-[1,1′-biphenyl]-4-yl)but-3-yn-1-ol] | – | – | – | –
9 | 0.25 (≈ 0.597 µM) | 2 (≈ 4.78 µM) | 4 (≈ 9.56 µM) | 0.5 (≈ 1.19 µM) | C[C@H](O)c1nccn1[C@@H](C#Cc1ccc(-c2ccc(OC3(C)COC3)cc2)cc1)CO [Compound 136, (S)-2-(2-((S)-1-hydroxyethyl)-1H-imidazol-1-yl)-4-(4′-((3-methyloxetan-3-yl)oxy)-[1,1′-biphenyl]-4-yl)but-3-yn-1-ol] | – | – | – | –
10 | 1 (≈ 2.66 µM) | 4 (≈ 10.6 µM) | 16 (≈ 42.5 µM) | 2 (≈ 5.31 µM) | C[C@H](O)c1nccn1[C@@H](C#Cc1ccc(-c2ccc([C@@H](C)O)cc2)cc1)CO [Compound 138, (S)-2-(2-((S)-1-hydroxyethyl)-1H-imidazol-1-yl)-4-(4′-((R)-1-hydroxyethyl)-[1,1′-biphenyl]-4-yl)but-3-yn-1-ol] | – | – | – | –
11 | 0.5 (≈ 1.16 µM) | 1 (≈ 2.33 µM) | 4 (≈ 9.31 µM) | 1 (≈ 2.33 µM) | CC(=O)N1CC(c2ccc(-c3ccc(C#C[C@@H](CO)n4ccnc4[C@H](C)O)cc3)cc2)C1 [Compound 139, 1-(3-(4′-((S)-4-hydroxy-3-(2-((S)-1-hydroxyethyl)-1H-imidazol-1-yl)but-1-yn-1-yl)-[1,1′-biphenyl]-4-yl)azetidin-1-yl)ethan-1-one] | – | – | – | –
12 | 0.25 (≈ 0.567 µM) | 2 (≈ 4.54 µM) | 4 (≈ 9.08 µM) | 0.5 (≈ 1.13 µM) | C[C@H](O)c1nccn1[C@@H](C#Cc1ccc(-c2ccc(C3CN(CCC#N)C3)cc2)cc1)CO [Compound 140, 3-(3-(4′-((S)-4-hydroxy-3-(2-((S)-1-hydroxyethyl)-1H-imidazol-1-yl)but-1-yn-1-yl)-[1,1′-biphenyl]-4-yl)azetidin-1-yl)propanenitrile] | – | – | – | –
